ChEMBL document CHEMBL3351433, “Synthesis and evaluation of new 3-phenylcoumarin derivatives as potential antidepressant agents” (Bioorg Med Chem Lett, 2014)

Experiments:
Mus musculus [1] = experiment: Antidepressant activity in Swiss mouse assessed as reduction of immobility time at 0.5 mg/kg, ip after 30 mins by forced swimming test relative to vehicle-treated control; assay type: functional; design: scale not given: the % may be the effect or the level left; details: route intraperitoneal
Mus musculus [2] = experiment: Toxicity in Swiss mouse assessed as horizontal activity count at 0.5 mg/kg, ip after 30 mins measured for 120 mins by open field locomotor activity test; assay type: organism-based; design: dose 0.5 mg/kg, route intraperitoneal; details: in vivo
Mus musculus [3] = experiment: Toxicity in Swiss mouse assessed as total distance travelled at 0.5 mg/kg, ip after 30 mins measured for 120 mins by open field locomotor activity test; assay type: organism-based; design: dose 0.5 mg/kg, route intraperitoneal; details: in vivo, 2 h
Mus musculus [4] = organism: Mus musculus; experiment: Toxicity in Swiss mouse assessed as effect on neuro-muscular coordination after 30 to 180 mins by rotarod test; assay type: organism-based; details: in vivo
Mus musculus [5] = experiment: Antidepressant activity in Swiss mouse assessed as reduction of immobility time at 1 mg/kg, ip after 30 mins by forced swimming test relative to vehicle-treated control; assay type: functional; design: scale not given: the % may be the effect or the level left; details: route intraperitoneal
Mus musculus [6] = experiment: Antidepressant activity in Swiss mouse assessed as reduction of immobility time at 0.25 mg/kg, ip after 30 mins by forced swimming test relative to vehicle-treated control; assay type: functional; design: scale not given: the % may be the effect or the level left; details: route intraperitoneal
Mus musculus [7] = experiment: Antidepressant activity in Swiss mouse assessed as reduction of immobility time at 0.5 mg/kg, ip by tail suspension test relative to vehicle-treated control; assay type: functional; design: scale not given: the % may be the effect or the level left; details: route intraperitoneal
[8] = Tmax in Swiss albino mouse at 10 mg/kg, ip; assay type: ADME, organism-based; design: dose 10 mg/kg, route intraperitoneal; details: in vivo
[9] = Bioavailability in Swiss albino mouse at 10 mg/kg, ip; details: in vivo, intraperitoneal
[10] = AUC (0 to infinity) in Swiss albino mouse at 10 mg/kg, ip; assay type: ADME, organism-based; design: time infinity, dose 10 mg/kg, route intraperitoneal; details: plasma
[11] = Terminal half life in Swiss albino mouse at 1 mg/kg, iv; assay type: ADME, organism-based; design: dose 1 mg/kg, route intravenous; details: in vivo, read-out: beta t1/2 (converted)
[12] = AUC (0 to infinity) in Swiss albino mouse at 1 mg/kg, iv; assay type: ADME, organism-based; design: time infinity, dose 1 mg/kg, route intravenous; details: plasma
[13] = Volume of distribution in Swiss albino mouse at 1 mg/kg, iv; assay type: ADME, organism-based; design: dose 1 mg/kg, route intravenous; details: in vivo
[14] = Terminal half life in Swiss albino mouse at 10 mg/kg, ip; assay type: ADME, organism-based; design: dose 10 mg/kg, route intraperitoneal; details: in vivo, read-out: beta t1/2 (converted)
[15] = Clearance in Swiss albino mouse at 1 mg/kg, iv; assay type: ADME, organism-based; design: dose 1 mg/kg, route intravenous; details: in vivo
[16] = Cmax in Swiss albino mouse at 10 mg/kg, ip; assay type: ADME, organism-based; design: dose 10 mg/kg, route intraperitoneal; details: in vivo
Mus musculus [17] = experiment: Volume of distribution in Swiss albino mouse at 10 mg/kg, ip; assay type: ADME, organism-based; design: dose 10 mg/kg, route intraperitoneal; details: in vivo
[18] = Clearance in Swiss albino mouse at 10 mg/kg, ip; assay type: ADME, organism-based; design: dose 10 mg/kg, route intraperitoneal; details: in vivo
[19] = Cmax in Swiss albino mouse at 1 mg/kg, iv; assay type: ADME, organism-based; design: dose 1 mg/kg, route intravenous; details: in vivo
[20] = Oral bioavailability in rat; assay type: ADME, organism-based; details: in vivo

Structure (SMILES) | Activity (Mus musculus [1]) | Activity (Mus musculus [2]) | Activity (Mus musculus [3]) | Activity (Mus musculus [4]) | Activity (Mus musculus [5]) | Activity (Mus musculus [6]) | Activity (Mus musculus [7]) | also measured
COc1ccc(-c2cc3cc(CO)cc(C(C)(C)C)c3oc2=O)cc1OC | 58% | – | – | – | – | – | – | –
COc1ccc(-c2cc3cc(CBr)cc(C)c3oc2=O)cc1OC | 61% | – | – | – | – | – | – | –
COc1cc(-c2cc3cc(CBr)cc(C)c3oc2=O)cc(OC)c1OC | 73% | Non-toxic | Non-toxic | Non-toxic | 71% | 16% | 49% | –
COc1ccc(-c2cc3cc(CBr)cc(C(C)(C)C)c3oc2=O)cc1OC | 55% | – | – | – | – | – | – | –
COc1ccc(-c2cc3cc(CNc4ccc(C)cc4)cc(C)c3oc2=O)cc1 | 80% | Non-toxic | Non-toxic | Non-toxic | 75% | 17% | 53% | Tmax [8]: 2 h; bioavailability [9]: 73.4%; AUC(0-inf) [10]: 2330 ng·h/mL; half-life [11]: 3.21 h; AUC(0-inf) [12]: 316 ng·h/mL; Vd [13]: 18 L/kg; half-life [14]: 7.57 h; clearance [15]: 67.3 mL/min/kg; Cmax [16]: 256 ng/mL; Vd (Mus musculus [17]): 30.45 L/kg; CL/F [18]: 47.2 mL/min/kg; Cmax [19]: 105 ng/mL
CNCCC(Oc1ccc(C(F)(F)F)cc1)c1ccccc1 (stereo not given) [FLUOXETINE] | – | – | – | – | – | – | – | bioavailability [20]: 60%
